Measurements: paper PMC10025480 (Frontiers in Pharmacology, 2023)
Where two headings read alike, the source gives them in different places.

Legend:
[1] = system: panel of 22 functional GPCR assays; test: SelectScreen cell-based GPCR assay panel; details: 10 µM
From the text: Profiling of compound activity versus a select panel of diverse GPCRs was undertaken by ThermoFisher Scientific (United Kingdom) via their SelectScreen cell-based GPCR assay panel. Detailed experimental protocols on this assay platform can be found at (https://www.thermofisher.com/content/dam/LifeTech/migration/en/filelibrary/services/discovery-research/pdfs.par.36410.file.dat/sscg-brochure.pdf). Briefly these assays detect agonist or antagonist activity using cell lines with the GPCR of interest over-expressed, driving the expression of a reporter gene encompassing a mammalian-optimized Beta-lactamase. Test compounds are incubated with the specific cell lines at the defined final concentration for 5 or 16 h (depending on the cell line specifics) before quantification of effect.

[2] = biological target: T1, hTMEM16Aabc (Homo sapiens, UniProt Q5XXA6, DEL476-501); test: Whole-cell patch clamp (QPatch), FRT-hTMEM16Aabc cells; format: cell-based; details: for IC50: [Ca2+]i clamped at 415 nM
T1 construct: expressed in transfected cells
T1 sequence (Q5XXA6 with tags, fused parts or gaps isoform Q5XXA6-5 DEL539-564): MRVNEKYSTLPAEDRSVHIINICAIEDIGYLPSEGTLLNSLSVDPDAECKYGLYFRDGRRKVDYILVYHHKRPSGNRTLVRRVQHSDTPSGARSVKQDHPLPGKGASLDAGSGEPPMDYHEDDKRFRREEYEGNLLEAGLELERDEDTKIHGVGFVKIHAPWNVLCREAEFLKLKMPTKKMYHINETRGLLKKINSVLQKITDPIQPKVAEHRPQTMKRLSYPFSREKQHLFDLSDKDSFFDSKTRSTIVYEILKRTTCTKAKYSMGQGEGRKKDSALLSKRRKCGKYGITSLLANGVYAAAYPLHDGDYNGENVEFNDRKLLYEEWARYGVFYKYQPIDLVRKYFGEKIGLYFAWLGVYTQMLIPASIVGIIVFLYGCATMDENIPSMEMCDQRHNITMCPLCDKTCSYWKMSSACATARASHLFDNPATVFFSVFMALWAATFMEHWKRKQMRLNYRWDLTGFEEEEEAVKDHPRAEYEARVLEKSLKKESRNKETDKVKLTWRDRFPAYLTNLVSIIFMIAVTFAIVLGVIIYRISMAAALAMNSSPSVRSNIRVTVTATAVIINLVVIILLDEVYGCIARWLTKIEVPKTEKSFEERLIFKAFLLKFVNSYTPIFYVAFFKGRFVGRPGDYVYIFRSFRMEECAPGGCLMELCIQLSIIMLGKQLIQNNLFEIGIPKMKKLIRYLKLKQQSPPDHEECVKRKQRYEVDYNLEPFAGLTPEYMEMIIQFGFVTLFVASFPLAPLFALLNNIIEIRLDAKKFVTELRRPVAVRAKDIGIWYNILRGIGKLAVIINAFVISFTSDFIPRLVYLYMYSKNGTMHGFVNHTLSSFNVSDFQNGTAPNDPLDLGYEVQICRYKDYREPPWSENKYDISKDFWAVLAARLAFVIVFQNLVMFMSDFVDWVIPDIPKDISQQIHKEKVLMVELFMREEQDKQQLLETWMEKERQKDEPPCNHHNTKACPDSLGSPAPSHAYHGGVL
Procedure: Current rectification ratios were calculated by dividing the magnitude of the outward current at +90 mV by the magnitude of the inward current at −90 mV.

[3] = system: FRT-TMEM16Aabc cells; test: Intracellular Ca2+ measurement (Calcium6), FRT-TMEM16Aabc cells; format: cell-based; details: 10 min pre-treatment
Procedure: (§1) CF-HBE cultured at air-liquid interface for 14–21 days were pre-treated with IL-13 (10 ng/mL; 48 h). CF-HBE were then loaded with the Ca^2+-sensitive fluorescent reporter dye, Calcium6 for 120 min at 37°C in Hanks balanced salt solution (HBSS) buffered with 20 mM HEPES (pH 7.4). […] The direct effects of apically administered TMEM16A blockers on [Ca^2+]i as well as effects on the subsequent responses to UTP were measured using a PHERAstar plate reader (BMG Lab Tech, United Kingdom). Equivalent measurements were performed in FRT-TMEM16Aabc cells that had been cultured in 96 well, clear bottom plastic plates and loaded with Calcium6 using the same protocol.

[4] = biological target: T1, hTMEM16Aabc; test: Short-circuit current (ISC), FRT-TMEM16Aabc monolayers in Ussing chambers; format: cell-based; details: for UTP-stimulated integrated ISC response (AUC) / UTP-stimulated peak increase in ISC: 5 min pre-treatment, apical, UTP 10 µM, concentration-dependent
Procedure: FRT-hTMEM16Aabc cells were mounted in Ussing chambers in asymmetrical Ringers solutions. The basolateral Ringers contained (in mM): 120 NaCl, 25 NaHCO3, 3.3 KH2PO4, 0.8 K2HPO4, 1.2 CaCl2, 1.2 MgCl2, and 10 glucose. In the apical Ringers solution, NaCl was reduced to 80 mM and 40 mM sodium gluconate was included to establish a Cl^− gradient. The solution osmolarity was between 280 and 300 mosmol kg H2O^−1 and was continuously gassed (5% CO2 in O2; pH 7.4) and maintained at 37°C. Cells were voltage clamped to 0 mV (model EVC4000; WPI) and the short-circuit current (ISC) was measured. Data were recorded using a PowerLab workstation and LabChart software (ADInstruments, Abingdon, Oxon, United Kingdom). TMEM16A blockers were added to the apical side of the epithelium for 5 min before the addition of UTP, that was used to stimulate a TMEM16A-mediated chloride secretory responses.

[5] = system: HBE cells; test: Goblet cell formation (MUC5AC+ and acetylated α-tubulin+ stained area) in HBE; format: cell-based, human; details: for acetylated α-tubulin (ciliated) stained area / MUC5AC+ stained area (goblet cells): 96 h; for MUC5AC+ stained area (goblet cells): IL-13 naïve and IL-13 treated cultures
Procedure: HBE cultured at air-liquid interface for 14–21 days were treated with TMEM16A blockers ± IL-13 (10 ng/mL; basolateral) for 96 h to establish any effects on goblet cell numbers. At 48h, LDH levels in the media were measured according to the manufacturer’s instructions (Roche Cytotoxicity Detection Kit #11644793001), and blockers, IL-13 and media were refreshed. At 96 h, wells were fixed in 4% formaldehyde and were stained with antibodies to MUC5AC (45M1; Thermo Fisher, United Kingdom) and acetylated α-tubulin (6-11B-1; Sigma, United Kingdom) as previously described ([Danahay et al., 2015]; [Danahay et al., 2020b]) with secondary antibodies to enable fluorescence detection of both proteins (Alexa Fluor; Thermo Fisher, United Kingdom). The MUC5AC^+ stained area was visualised using a Zeiss Axiovert epifluorescence microscope with a motorised stage that was used to image the same 9 regions of interest on each insert. ImageJ was used to quantify the MUC5AC^+ and stained area per insert which was normalised to the vehicle control group. The process was repeated for the acetylated α-tubulin^+ stained area.

[6] = system: CF-HBE cells; test: Intracellular Ca2+ measurement (Calcium6), IL-13 pre-treated CF-HBE at ALI; format: cell-based, human; details: for direct effect on baseline [Ca2+]i: apical addition; for UTP-stimulated elevation of [Ca2+]i: pre-treatment
Procedure: as §1

Structure (SMILES)	number of GPCRs inhibited by ≥ 50% [1]	IC50 ([2]; IC50 (printed in Figure 1, concentration-response curves), hTMEM16Aabc currents in FRT cells)	IC50 ([2]; IC50, inhibition of TMEM16Aabc currents, assessed at +90 mV, FRT cells)	IC50 ([2]; at −90 mV, FRT cells, read-out: IC50, inhibition of TMEM16Aabc currents)	inhibition at 30 µM ([2]; highest concentration tested, 30 µM, [Ca2+]i 415 nM, read-out: inhibition of TMEM16Aabc current)	UTP-stimulated increase in [Ca2+]i [3]	effect on baseline ISC prior to UTP [4]	UTP-stimulated integrated ISC response (AUC) [4]	UTP-stimulated peak increase in ISC [4]	acetylated α-tubulin (ciliated) stained area [5]	MUC5AC+ stained area (goblet cells) [5]	direct effect on baseline [Ca2+]i [6]	UTP-stimulated elevation of [Ca2+]i [6]	current reversal potential ([2]; 30 µM, vehicle −12.3 ± 2.0 mV)	effect on TMEM16Aabc currents ([2]; bell-shaped response, [Ca2+]i 415 nM)	transient increase in ISC on addition ([4]; 10 µM, vehicle 0.0 ± 0.1)	subsequent attenuation of the baseline current ([4]; 10 µM, vehicle −0.3 ± 0.1)	air-liquid interface integrity ([5]; by 48 h after initiating treatment, media on mucosal surface)
CCc1oc2ccccc2c1C(=O)c1cc(Br)c(O)c(Br)c1 [benzbromarone]	6	3.05 ± 0.586 µM	3 ± 0.6 µM	1.3 ± 0.3 µM	96%	significantly attenuated	without effect	attenuated	attenuated	significantly attenuated	significantly attenuated	immediate and transient increase	attenuated					
O=C(Nc1ccc([N+](=O)[O-])cc1Cl)c1cc(Cl)ccc1O [niclosamide]	11					significantly attenuated		attenuated	attenuated	significantly attenuated	significantly attenuated	immediate and transient increase	attenuated	−29.8 ± 1.3 mV	potentiation of currents at concentrations up to 1.1 µM	4.4 ± 0.3 µAcm^-2	−6.7 ± 0.7 µAcm^-2	compromised
